Columns and labels:
Test in all cases: biochemical
Parameters in all cases: DiscoverX KINOMEscan scanMAX competition binding panel, single concentration, percent of control; remaining binding: dose or concentration left out as unconfirmed
Settings in all cases: KINOMEscan binding, percent of control; read-out: Table S4_SCANMAX REPORT - related to Fig. 1 / Percent Control
[1] = biological target: T1, RSK4(Kin.Dom.2-C-terminal) (Homo sapiens, UniProt Q9UK32)
T1 construct: gene RPS6KA6; Kin.Dom.2-C-terminal
T1 sequence (Q9UK32 whole entry): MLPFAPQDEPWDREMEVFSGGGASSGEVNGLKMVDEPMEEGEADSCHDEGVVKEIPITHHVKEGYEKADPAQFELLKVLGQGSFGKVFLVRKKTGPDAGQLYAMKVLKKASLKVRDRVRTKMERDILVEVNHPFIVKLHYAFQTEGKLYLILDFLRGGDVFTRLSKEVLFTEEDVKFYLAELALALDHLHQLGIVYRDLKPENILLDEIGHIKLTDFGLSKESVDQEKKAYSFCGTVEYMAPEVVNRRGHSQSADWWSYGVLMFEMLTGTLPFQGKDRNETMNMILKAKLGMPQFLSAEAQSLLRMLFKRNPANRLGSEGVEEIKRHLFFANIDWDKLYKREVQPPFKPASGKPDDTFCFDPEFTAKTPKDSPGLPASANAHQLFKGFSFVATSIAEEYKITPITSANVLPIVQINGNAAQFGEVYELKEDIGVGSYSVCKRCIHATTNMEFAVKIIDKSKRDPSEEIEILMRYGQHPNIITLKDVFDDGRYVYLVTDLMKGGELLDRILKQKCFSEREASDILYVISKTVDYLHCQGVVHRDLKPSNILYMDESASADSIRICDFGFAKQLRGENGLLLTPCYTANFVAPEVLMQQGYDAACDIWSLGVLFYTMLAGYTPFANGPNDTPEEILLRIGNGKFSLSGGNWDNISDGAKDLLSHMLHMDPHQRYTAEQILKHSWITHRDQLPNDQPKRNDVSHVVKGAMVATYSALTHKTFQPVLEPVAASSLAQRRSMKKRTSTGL

PKN1 = PKN1 (Homo sapiens, UniProt Q16512)
PKAC-beta = biological target: T2, PKAC-beta (Homo sapiens, UniProt P22694)
T2 construct: gene PRKACB

ALK = ALK (Homo sapiens, UniProt Q9UM73)
ALK, sequence (Q9UM73 whole entry): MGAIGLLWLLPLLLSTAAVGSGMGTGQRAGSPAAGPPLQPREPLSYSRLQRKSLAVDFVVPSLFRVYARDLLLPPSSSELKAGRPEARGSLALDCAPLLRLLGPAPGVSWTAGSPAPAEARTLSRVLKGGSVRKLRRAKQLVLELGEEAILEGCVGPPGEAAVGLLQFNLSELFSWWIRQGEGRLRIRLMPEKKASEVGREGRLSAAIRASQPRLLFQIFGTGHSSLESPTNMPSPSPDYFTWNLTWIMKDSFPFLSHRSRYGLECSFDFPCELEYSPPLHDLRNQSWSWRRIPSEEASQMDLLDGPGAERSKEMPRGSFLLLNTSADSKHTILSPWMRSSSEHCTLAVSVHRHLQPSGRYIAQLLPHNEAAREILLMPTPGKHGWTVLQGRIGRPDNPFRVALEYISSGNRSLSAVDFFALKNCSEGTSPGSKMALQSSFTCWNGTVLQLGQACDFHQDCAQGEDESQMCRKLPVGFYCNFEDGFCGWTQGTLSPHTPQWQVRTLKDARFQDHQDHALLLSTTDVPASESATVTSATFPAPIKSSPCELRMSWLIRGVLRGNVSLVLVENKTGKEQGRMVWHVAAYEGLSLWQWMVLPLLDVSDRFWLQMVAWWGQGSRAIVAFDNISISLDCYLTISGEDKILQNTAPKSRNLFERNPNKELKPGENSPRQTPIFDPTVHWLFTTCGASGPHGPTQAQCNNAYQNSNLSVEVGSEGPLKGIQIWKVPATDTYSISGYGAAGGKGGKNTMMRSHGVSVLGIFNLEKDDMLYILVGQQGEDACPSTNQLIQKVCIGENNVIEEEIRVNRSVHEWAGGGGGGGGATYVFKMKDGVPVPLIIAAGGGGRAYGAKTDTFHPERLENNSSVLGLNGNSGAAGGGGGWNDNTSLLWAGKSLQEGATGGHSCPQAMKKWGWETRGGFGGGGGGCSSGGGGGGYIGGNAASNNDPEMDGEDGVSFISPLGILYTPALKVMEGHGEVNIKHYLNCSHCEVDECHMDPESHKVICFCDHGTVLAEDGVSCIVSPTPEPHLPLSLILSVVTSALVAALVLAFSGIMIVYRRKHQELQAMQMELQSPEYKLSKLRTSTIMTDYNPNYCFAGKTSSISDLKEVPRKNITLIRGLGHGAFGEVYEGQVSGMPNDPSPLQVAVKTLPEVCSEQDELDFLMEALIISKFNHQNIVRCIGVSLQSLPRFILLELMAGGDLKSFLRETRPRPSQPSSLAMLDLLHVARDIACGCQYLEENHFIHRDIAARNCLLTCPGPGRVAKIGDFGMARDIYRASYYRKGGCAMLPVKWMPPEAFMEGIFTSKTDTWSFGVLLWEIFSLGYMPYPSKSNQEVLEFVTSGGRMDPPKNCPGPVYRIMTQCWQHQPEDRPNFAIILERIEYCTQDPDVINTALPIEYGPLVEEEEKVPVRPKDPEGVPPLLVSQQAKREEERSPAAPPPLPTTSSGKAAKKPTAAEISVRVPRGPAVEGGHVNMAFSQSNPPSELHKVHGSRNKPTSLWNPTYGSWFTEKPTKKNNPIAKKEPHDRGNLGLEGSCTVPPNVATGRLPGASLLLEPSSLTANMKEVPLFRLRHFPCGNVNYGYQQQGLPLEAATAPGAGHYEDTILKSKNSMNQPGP

CLK2 = CLK2 (Homo sapiens, UniProt P49760)
PKN2 = PKN2 (Homo sapiens, UniProt Q16513)
PKN2, sequence (Q16513 whole entry): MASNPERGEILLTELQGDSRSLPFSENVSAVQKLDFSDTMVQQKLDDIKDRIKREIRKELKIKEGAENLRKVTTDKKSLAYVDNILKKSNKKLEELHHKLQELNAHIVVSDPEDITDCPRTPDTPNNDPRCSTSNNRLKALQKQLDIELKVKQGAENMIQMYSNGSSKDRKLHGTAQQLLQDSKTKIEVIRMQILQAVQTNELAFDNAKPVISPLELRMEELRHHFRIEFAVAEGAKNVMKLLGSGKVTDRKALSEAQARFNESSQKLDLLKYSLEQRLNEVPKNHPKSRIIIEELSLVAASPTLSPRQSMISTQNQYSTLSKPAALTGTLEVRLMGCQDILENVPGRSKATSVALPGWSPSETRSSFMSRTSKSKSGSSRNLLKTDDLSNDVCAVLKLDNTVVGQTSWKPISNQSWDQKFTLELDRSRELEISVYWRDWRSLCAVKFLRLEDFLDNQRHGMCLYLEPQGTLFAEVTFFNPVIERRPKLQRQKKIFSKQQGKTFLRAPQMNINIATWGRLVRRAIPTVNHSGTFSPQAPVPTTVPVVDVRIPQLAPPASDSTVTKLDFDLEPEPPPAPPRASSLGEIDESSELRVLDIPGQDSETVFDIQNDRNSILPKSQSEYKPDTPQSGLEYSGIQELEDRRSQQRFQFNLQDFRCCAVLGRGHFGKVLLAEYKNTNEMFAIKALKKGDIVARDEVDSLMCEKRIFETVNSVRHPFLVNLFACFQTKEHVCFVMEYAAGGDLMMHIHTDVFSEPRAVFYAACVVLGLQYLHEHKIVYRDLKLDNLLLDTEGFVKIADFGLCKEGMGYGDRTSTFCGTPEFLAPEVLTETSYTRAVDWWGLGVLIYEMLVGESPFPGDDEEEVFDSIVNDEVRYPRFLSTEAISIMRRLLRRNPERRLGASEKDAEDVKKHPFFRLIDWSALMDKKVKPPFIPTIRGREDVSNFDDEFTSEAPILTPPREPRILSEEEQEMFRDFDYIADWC

[2] = biological target: T3, RPS6KA4(Kin.Dom.1-N-terminal) (Homo sapiens, UniProt O75676)
T3 construct: Kin.Dom.1-N-terminal

[3] = biological target: T4, ABL1(Q252H)-phosphorylated (Homo sapiens, UniProt P00519, Q252H)
T4 construct: phosphorylated

RIPK1 = RIPK1 (Homo sapiens, UniProt Q13546)
RIPK1, sequence (Q13546 whole entry): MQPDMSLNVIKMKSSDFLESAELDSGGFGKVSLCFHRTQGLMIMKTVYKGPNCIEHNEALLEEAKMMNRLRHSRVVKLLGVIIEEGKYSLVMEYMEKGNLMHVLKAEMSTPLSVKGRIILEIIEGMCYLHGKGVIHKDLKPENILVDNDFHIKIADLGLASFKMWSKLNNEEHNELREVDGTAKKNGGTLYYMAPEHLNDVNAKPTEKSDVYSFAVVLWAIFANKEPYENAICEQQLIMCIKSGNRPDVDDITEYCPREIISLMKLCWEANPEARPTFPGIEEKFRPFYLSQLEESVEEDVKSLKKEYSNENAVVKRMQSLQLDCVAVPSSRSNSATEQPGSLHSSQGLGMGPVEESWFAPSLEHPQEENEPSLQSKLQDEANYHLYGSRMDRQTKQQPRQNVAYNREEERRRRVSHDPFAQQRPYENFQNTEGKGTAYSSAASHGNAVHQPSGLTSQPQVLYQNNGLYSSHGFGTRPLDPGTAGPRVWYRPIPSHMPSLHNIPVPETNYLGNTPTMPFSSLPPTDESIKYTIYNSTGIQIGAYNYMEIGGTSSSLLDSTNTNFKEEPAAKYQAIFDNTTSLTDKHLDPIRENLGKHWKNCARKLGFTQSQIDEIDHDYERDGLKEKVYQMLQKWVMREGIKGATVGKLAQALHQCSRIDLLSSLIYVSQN

NEK3 = NEK3 (Homo sapiens, UniProt P51956)
EPHB6 = EPHB6 (Homo sapiens, UniProt O15197)
CAMK1D = CAMK1D (Homo sapiens, UniProt Q8IU85)
CAMK1B = biological target: T5, CAMK1B (Homo sapiens, UniProt Q6P2M8)
T5 construct: gene PNCK
T5 sequence (Q6P2M8 whole entry): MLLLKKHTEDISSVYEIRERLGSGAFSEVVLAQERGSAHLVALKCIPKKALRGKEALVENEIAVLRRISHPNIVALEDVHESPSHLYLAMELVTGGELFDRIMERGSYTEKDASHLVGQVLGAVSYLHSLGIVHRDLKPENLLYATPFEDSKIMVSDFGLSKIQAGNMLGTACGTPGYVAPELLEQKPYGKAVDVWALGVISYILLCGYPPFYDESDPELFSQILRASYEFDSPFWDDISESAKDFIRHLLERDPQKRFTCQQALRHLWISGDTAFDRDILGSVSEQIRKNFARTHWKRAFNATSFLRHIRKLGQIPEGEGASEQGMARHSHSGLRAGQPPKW

CDKL2 = CDKL2 (Homo sapiens, UniProt Q92772)
CDKL2, sequence (Q92772 whole entry): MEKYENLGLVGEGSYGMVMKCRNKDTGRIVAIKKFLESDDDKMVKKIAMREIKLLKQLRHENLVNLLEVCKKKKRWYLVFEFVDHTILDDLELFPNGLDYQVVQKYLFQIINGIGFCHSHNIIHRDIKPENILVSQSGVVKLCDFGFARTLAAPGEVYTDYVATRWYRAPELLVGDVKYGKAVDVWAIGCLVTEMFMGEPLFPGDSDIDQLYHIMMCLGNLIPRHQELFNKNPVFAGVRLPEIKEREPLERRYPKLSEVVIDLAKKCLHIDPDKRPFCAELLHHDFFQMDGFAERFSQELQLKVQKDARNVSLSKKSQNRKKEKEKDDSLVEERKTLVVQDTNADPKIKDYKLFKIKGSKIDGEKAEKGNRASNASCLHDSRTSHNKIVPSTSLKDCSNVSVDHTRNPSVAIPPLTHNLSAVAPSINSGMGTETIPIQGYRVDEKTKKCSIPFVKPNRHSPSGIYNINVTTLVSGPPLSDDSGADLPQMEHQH

PIK3CD = PIK3CD (Homo sapiens, UniProt O00329)
AMPK-alpha2 = biological target: T6, AMPK-alpha2 (Homo sapiens, UniProt P54646)
T6 construct: gene PRKAA2

MST4 = biological target: T7, MST4 (Homo sapiens, UniProt Q9P289)
T7 construct: gene STK26

[4] = biological target: T8, ABL1(H396P)-phosphorylated (Homo sapiens, UniProt P00519, H396P)
T8 construct: phosphorylated

c1ccc2c(c1)Sc1ccccc1N2CCN1CCOCC1 [J54]
remaining binding [1]: 99% | remaining binding (PKN1): 100% | remaining binding (PKAC-beta): 86% | remaining binding (ALK): 59% | remaining binding (CLK2): 79% | remaining binding (PKN2): 69% | remaining binding [2]: 75% | remaining binding [3]: 90% | remaining binding (RIPK1): 84% | remaining binding (NEK3): 75% | remaining binding (EPHB6): 74% | remaining binding (CAMK1D): 85% | remaining binding (CAMK1B): 94% | remaining binding (CDKL2): 100% | remaining binding (PIK3CD): 100% | remaining binding (AMPK-alpha2): 100% | remaining binding (MST4): 100% | remaining binding [4]: 100%
